Experimental data reported in paper PMC9908843 (Angewandte Chemie (International Ed. in English), 2023).

Assays:
BtMan2A = biological target: T1, BtMan2A (Bacteroides thetaiotaomicron, UniProt Q8AAK6); experiment: BtMan2A inhibition; format: biochemical; conditions: ratio of Ki for BtMan2A
T1 sequence (Q8AAK6 26-864): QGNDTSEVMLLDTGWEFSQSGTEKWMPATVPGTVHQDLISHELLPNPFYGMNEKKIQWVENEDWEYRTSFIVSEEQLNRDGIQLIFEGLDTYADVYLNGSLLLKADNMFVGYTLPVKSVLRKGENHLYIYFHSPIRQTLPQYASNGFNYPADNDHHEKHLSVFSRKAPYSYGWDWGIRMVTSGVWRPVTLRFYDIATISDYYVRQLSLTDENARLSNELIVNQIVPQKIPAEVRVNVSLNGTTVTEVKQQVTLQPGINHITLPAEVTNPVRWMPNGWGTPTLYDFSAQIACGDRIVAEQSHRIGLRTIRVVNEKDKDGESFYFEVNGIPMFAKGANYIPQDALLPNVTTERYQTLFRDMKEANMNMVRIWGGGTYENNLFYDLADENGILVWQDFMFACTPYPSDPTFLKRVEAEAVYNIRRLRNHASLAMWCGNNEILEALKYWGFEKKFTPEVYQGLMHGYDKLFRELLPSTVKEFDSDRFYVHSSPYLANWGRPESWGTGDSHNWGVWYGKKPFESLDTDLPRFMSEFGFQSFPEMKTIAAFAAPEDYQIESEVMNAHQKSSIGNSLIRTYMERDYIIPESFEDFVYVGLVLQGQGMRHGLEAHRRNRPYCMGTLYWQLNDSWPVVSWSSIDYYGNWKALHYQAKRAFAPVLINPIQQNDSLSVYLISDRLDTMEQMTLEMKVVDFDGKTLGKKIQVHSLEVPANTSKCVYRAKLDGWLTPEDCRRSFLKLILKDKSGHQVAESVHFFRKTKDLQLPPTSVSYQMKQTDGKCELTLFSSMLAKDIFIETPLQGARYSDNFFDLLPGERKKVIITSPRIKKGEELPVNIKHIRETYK

TmGH1, SsGH1 and BtMan2A = format: biochemical; conditions: 3 vs 4 (TmGH1, SsGH1), 7 vs 8 (BtMan2A)
TmGH1 [1] = biological target: T2, TmGH1 (Thermotoga maritima, UniProt Q08638); experiment: TmGH1 inhibition; format: biochemical
T2 sequence (Q08638 1-446): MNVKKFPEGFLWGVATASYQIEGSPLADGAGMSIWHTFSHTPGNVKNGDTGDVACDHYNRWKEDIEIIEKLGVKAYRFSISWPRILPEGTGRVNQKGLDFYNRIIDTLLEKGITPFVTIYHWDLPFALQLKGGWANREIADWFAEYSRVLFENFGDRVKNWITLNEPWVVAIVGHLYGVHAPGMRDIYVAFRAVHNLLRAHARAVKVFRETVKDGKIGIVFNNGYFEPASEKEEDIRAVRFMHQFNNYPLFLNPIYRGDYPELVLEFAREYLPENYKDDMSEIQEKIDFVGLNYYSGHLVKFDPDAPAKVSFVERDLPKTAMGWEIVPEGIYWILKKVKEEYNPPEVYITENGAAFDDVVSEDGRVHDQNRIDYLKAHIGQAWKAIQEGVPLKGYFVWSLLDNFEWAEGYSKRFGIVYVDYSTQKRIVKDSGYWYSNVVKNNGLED

SsGH1 = biological target: T3, SsGH1 (Saccharolobus solfataricus, UniProt P22498); experiment: SsGH1 inhibition; format: biochemical, Sulfolobus solfataricus
T3 sequence (P22498 1-489): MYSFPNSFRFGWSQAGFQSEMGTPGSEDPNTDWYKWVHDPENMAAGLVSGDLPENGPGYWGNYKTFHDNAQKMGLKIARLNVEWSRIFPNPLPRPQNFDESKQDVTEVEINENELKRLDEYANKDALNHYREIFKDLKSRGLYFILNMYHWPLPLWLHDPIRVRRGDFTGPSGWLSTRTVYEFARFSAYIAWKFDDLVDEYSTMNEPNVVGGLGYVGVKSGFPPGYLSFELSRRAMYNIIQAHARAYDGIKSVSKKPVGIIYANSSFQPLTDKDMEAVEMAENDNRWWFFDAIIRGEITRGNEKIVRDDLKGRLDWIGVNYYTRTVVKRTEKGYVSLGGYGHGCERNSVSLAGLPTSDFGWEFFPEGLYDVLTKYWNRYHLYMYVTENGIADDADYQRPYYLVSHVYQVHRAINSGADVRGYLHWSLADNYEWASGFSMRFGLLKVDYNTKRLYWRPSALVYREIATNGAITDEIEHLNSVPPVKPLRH

TmGH1 [2] = biological target: T2, TmGH1; conditions: cited from earlier work

| Structure (SMILES) | Fold greater potency over 1-deoxymannojirimycin 6 (BtMan2A) [fold] | Fold better inhibitor than the isosteric compound with the gt conformation (TmGH1, SsGH1 and BtMan2A) | Ki (TmGH1 [1]) [µM] | Ki (SsGH1) [µM] | Fold better inhibitor than 1-deoxynojirimycin 2 (TmGH1 [2]) |
| --- | --- | --- | --- | --- | --- |
| C[C@H](O)[C@H]1NC[C@@H](O)[C@@H](O)[C@@H]1O.Cl [Compound 7] | 27 | between six‐ and ten‐fold |  |  |  |
| C[C@H](O)[C@H]1NC[C@H](O)[C@@H](O)[C@@H]1O.Cl [Compound 3] |  | between six‐ and ten‐fold | 16 ± 2 | 17 ± 1 |  |
| O[C@H]1[C@H](O)[C@@H](O)CN2CC[C@H](O)[C@H]12 [Compound 1, castanospermine] |  |  |  |  | four‐fold |
| OC[C@H]1NC[C@H](O)[C@@H](O)[C@@H]1O [Compound 2, 1‐deoxynojirimycin, reference compound] |  |  | 5.4 ± 0.5 | 3.1 ± 0.2 |  |
| C[C@@H](O)[C@H]1NC[C@H](O)[C@@H](O)[C@@H]1O [Compound 4] |  |  | 135 ± 11 | 105 ± 10 |  |
